Test results: patent US20240217928A1, “HALOACETHYDRAZIDES USEFUL AS AEP INHIBITORS” (Hoffmann-La Roche Inc., priority 2021, published 2024)

Biological target: T1, rhlegumain (hLGMN(V18-Y433)_VD-8xHis-S2-r) (Homo sapiens, UniProt Q99538)
T1 construct: construct name: hLGMN(V18-Y433)_VD-8xHis-S2-r; VD linker (C); 8xHis (C); made in house
T1 sequence (Q99538 26-323 limits assumed): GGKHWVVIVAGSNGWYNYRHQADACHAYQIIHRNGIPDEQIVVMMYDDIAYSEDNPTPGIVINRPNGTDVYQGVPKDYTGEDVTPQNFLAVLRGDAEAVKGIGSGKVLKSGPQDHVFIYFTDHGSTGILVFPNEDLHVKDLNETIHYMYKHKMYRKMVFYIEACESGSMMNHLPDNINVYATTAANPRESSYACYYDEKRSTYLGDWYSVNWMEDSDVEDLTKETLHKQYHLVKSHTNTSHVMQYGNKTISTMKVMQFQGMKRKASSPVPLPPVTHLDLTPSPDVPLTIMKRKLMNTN
Assay: AEP activity enzymatic assay
Type: biochemical
Conditions: not given
Protocol: Prior to the assay measurements, rhlegumain (in house, construct name: hLGMN(V18-Y433)_VD-8xHis-S2-r) is activated by diluting it from 1.1 mg/ml to 0.1 mg/ml (11-fold) in activation buffer (50 mM sodium acetate, 100 mM NaCl, pH 4.0) and incubation at 37° C. for 2 h. The activated enzyme solution stock is stored at −80° C.

Q: How did the IC50 turn out when `NC(=O)CN(NC(=O)[C@@H]1CCCN1S(=O)(=O)CCc1ccccc1)C(=O)CF` [Example 10, 2-[(2-Fluoroacetyl)-[[(2S)-1-(2-Phenylethylsulfonyl)Pyrrolidine-2-Carbonyl]Amino]Amino]Acetamide] was run?
A: 33.8 nM

Q: How did the IC50 turn out when `NC(=O)CN(NC(=O)[C@@H]1CCCN1S(=O)(=O)c1ccccc1)C(=O)CF` [Example 7, 2-[(2-Fluoroacetyl)-[[(2S)-1-(Benzenesulfonyl)Pyrrolidine-2-Carbonyl]Amino]Amino]Acetamide] was run?
A: 61.7 nM

Q: `NC(=O)CN(NC(=O)[C@@H]1CCCN1C(=O)C1(c2ccc(Cl)cc2)CC1)C(=O)CF` [Example 6, 2-[(2-Fluoroacetyl)-[[(2S)-1-[1-(4-Chlorophenyl)Cyclopropanecarbonyl]Pyrrolidine-2-Carbonyl]Amino]Amino]Acetamide] was tested. Which IC50 did it give?
A: 2.7 nM

Q: How did the IC50 turn out when `C#CCOc1ccc(C2(C(=O)N3CCC[C@H]3C(=O)NN(CC(N)=O)C(=O)CF)CC2)cc1` [Example 14, 2-[(2-Fluoroacetyl)-[[(2S)-1-[1-(4-Prop-2-Ynoxyphenyl)Cyclopropanecarbonyl]Pyrrolidine-2-Carbonyl]Amino]Amino]Acetamide] was run?
A: 1.4 nM

Q: For `NC(=O)CN(NC(=O)[C@@H]1CCCN1S(=O)(=O)Cc1ccccc1)C(=O)CF` [Example 9, 2-[(2-Fluoroacetyl)-[[(2S)-1-Benzylsulfonylpyrrolidine-2-Carbonyl]Amino]Amino]Acetamide], which IC50 is on record?
A: 83.6 nM

Q: With `NC(=O)CN(NC(=O)[C@@H]1CCCN1C(=O)C(F)(F)c1ccccc1)C(=O)CF` [Example 1, 2-[(2-Fluoroacetyl)-[[(2S)-1-(2,2-Difluoro-2-Phenyl-Acetyl)Pyrrolidine-2-Carbonyl]Amino]Amino]Acetamide] as the compound, how does the IC50 read?
A: 3.6 nM

Q: For `NC(=O)CN(NC(=O)[C@@H]1CCCN1C(=O)C1(c2ccccc2)CCC1)C(=O)CF` [Example 3], which IC50 is on record?
A: 3.6 nM

Q: `NC(=O)CN(NC(=O)[C@@H]1CCCN1C(=O)C1(c2ccc(Cl)cc2)CCC1)C(=O)CF` [Example 4, 2-[(2-Fluoroacetyl)-[[(2S)-1-[1-(4-Chlorophenyl)Cyclobutanecarbonyl]Pyrrolidine-2-Carbonyl]Amino]Amino]Acetamide] was tested. Which IC50 did it give?
A: 1.3 nM

Q: With `NC(=O)CN(NC(=O)[C@@H]1CCCN1C(=O)C1(c2ccccc2)CC1)C(=O)CF` [Example 8, 2-[(2-Fluoroacetyl)-[[(2S)-1-(1-Phenylcyclopropanecarbonyl)Pyrrolidine-2-Carbonyl]Amino]Amino]Acetamide] as the compound, how does the IC50 read?
A: 5 nM

Q: With `NC(=O)CN(NC(=O)[C@@H]1CCCN1C(=O)CCc1ccccc1)C(=O)CF` [Example 2, 2-[(2-Fluoroacetyl)-[[(2S)-1-(3-Phenylpropanoyl)Pyrrolidine-2-Carbonyl]Amino]Amino]Acetamide] as the compound, how does the IC50 read?
A: 72.9 nM

Q: `NC(=O)CN(NC(=O)[C@@H]1CCCN1C(=O)Cc1ccccc1)C(=O)CF` [Example 5, 2-[(2-Fluoroacetyl)-[[(2S)-1-(2-Phenylacetyl)Pyrrolidine-2-Carbonyl]Amino]Amino]Acetamide] was tested. Which IC50 did it give?
A: 22.2 nM

Q: Which IC50 does the source give for `C#Cc1ccc(C2(C(=O)N3CCC[C@H]3C(=O)NN(CC(N)=O)C(=O)CF)CC2)cc1` [Example 11, 2-[(2-Fluoroacetyl)-[[(2S)-1-[1-(4-Ethynylphenyl)Cyclopropanecarbonyl]Pyrrolidine-2-Carbonyl]Amino]Amino]Acetamide] here?
A: 1.2 nM

Same assay, conditions: 0.5 nM legumain, 0.5 uM Z-Ala-Ala-Asn-Rh110-(D-Pro), pH 5.8, 30 min preincubation at 25° C.; read-out: IC50 (AEP)

Q: `COc1ccc(-c2ccc(S(=O)(=O)N3CCC[C@H]3C(=O)NN(CC(N)=O)C(=O)CCl)cc2)cc1` [Example 17, 2-[(2-Chloroacetyl)-[[(2S)-1-[4-(4-Methoxyphenyl)Phenyl]Sulfonylpyrrolidine-2-Carbonyl]Amino]Amino]Acetamide] was tested. Which IC50 did it give?
A: 0.3 nM

Q: Which IC50 does the source give for `COc1ccc(-c2ccc(S(=O)(=O)N3CCC[C@H]3C(=O)NN(CC(N)=O)C(=O)CF)cc2)cc1` [Example 13, 2-[(2-Fluoroacetyl)-[[(2S)-1-[4-(4-Methoxyphenyl)Phenyl]Sulfonylpyrrolidine-2-Carbonyl]Amino]Amino]Acetamide] here?
A: 1.5 nM
